A short description of data set [1]: Test G: Determination of in vitro Stability, rat liver microsomes. Format: in vitro ADME, Sprague-Dawley rats. The following applies: liver microsomes from rats, 37° C., up to 60 minutes. How it is done: (§1) Determination of in vitro Stability
(§2) Liver microsomes were prepared from Sprague-Dawley rats and human liver samples according to internal SOPs. The compounds were incubated at 37° C. at a total microsome protein concentration of 3 mg/mL in a 0.05 mol/L TRIS buffer at pH 7.4, in the presence of the cofactors NADH (2.5 mmol/L) and NADPH (0.8 mmol/L). The initial concentration of compound was 5 or 10 μmol/L. Samples were taken for analysis up to 60 minutes after the start of the incubation. The enzymatic activity in the collected sample was immediately stopped by adding 20% […] at a volume corresponding to 3.3% of the total sample volume. The concentration of compound remaining (FINAL CONC) in the 60 min. sample was determined by means of LCMS using a sample collected at zero time as reference (START CONC). The % of degraded thrombin inhibitor was calculated as: [formula]

Data set [2] in a line: Test G: Determination of in vitro Stability, human liver microsomes. Format: in vitro ADME. The following applies: liver microsomes from humans, 37° C., up to 60 minutes. How it is done: as §1, §2
A short description of data set [3]: Test E: Determination of Thrombin Time ex vivo (plasma concentration of thrombin inhibitor after oral or parenteral administration). It is filed as in vivo, rat. The conditions noted are these: conscious rats. The text has this: Determination of Thrombin Time ex vivo
The inhibition of thrombin after oral or parenteral administration of the compounds of the invention, dissolved in ethanol:Solutol™:water (5:5:90), is examined in conscious rats which, one or two days prior to the experiment, are equipped with a catheter for blood sampling from the carotid artery. On the experimental day blood samples are withdrawn at fixed times after the administration of the compound into plastic tubes containing 1 part sodium citrate solution (0.13 mol per L) and 9 parts of blood. The tubes are centrifuged to obtain platelet poor plasma.
50 μL of plasma samples are precipitated with 100 μL of cold acetonitrile. The samples are centrifuged for 10 minutes at 4000 rpm. 75 μL of the supernatant is diluted with 75 μL of 0.2% formic acid. 10 μL volumes of the resulting solutions are analysed by LC-MS/MS and the concentrations of thrombin inhibitor are determined using standard curves.

Results on two molecules are retold here after US6433186B1, “Amidino derivatives and their use as thormbin inhibitors” (AstraZeneca AB, priority 2000, dated 2002).

Regarding `CNc1cc(Cl)cc([C@@H](O)C(=O)N2CC[C@H]2C(=O)NCc2ccc(C(N)=NOC)cc2)c1` [Example 3, Ph(3-Cl)(5-NHMe)-(R)CH(OH)C(O)-(S)Aze-Pab(OMe)], the “conversion to the corresponding active inhibitor (free amidine)” value in data set [1] and in data set [2] was “converted to the corresponding active inhibitor (free amidine)” in each case. The “oral and/or parenteral bioavailability as the corresponding active inhibitor (free amidine)” value in data set [3] is “exhibit oral and/or parenteral bioavailability in the rat as the corresponding active inhibitor (free amidine)”.

Take `CC(=O)Nc1cc(Cl)cc([C@@H](O)C(=O)N2CC[C@H]2C(=O)NCc2ccc(C(N)=NOC(C)C)cc2)c1` [Example 6, Ph(3-Cl)(5-NHAc)-(R)CH(OH)C(O)-(S)Aze-Pab(OiPr)]: in data set [3], the “oral and/or parenteral bioavailability as the corresponding active inhibitor (free amidine)” value is on record as “exhibit oral and/or parenteral bioavailability in the rat as the corresponding active inhibitor (free amidine)”.
